Columns and labels:
[1] = Measurement of water activity (AquaLab Series 4TE); assay type: physicochemical; conditions: for water activity in the packaged body: packaged body with controlled relative humidity; for water activity at 25° C.: composition or crystal as placed in the vial
Method: The water activity was measured with AquaLab Series 4TE (METER Group Inc.). A sample having a volume of about 5 ml in a sample dish was placed in AquaLab Series 4TE, and the water activity at 25° C., was measured.

[2] = Evaluation of oxidation stability: QH residual rate after storage, QH ratio by HPLC; assay type: physicochemical
Method: The weight ratio of reduced coenzyme Q10 to total coenzyme Q10 (namely, reduced coenzyme Q10/(oxidized coenzyme Q10+reduced coenzyme Q10)) is defined as “QH ratio”. The QH ratio was determined by the following HPLC analysis. For the evaluation of oxidation stability, a rate of the change in the QH ratio at the end of the evaluation from that at the beginning of the evaluation was defined as “QH residual rate”, and the QH residual rate determined by the following expression was used as a measure of oxidation stability.
QH residual rate (%)=100×QH ratio at the end of the evaluation/QH ratio at the beginning of the evaluation
Column: SYMMETRY C18 (manufactured by Waters); 250 mm (length), 4.6 mm (inner diameter)
Mobile phase: C2H5OH:CH3OH=4:3 (v:v)
Detection wavelength: 210 nm

[3] = packaged body with controlled internal relative humidity, stored at 40° C., 2 weeks
[4] = sealed aluminum laminate bag, packed at controlled relative humidity, stored at 25° C., 4 weeks

QH residual rate (%) [2, 3] [%]	Compound	water activity in the packaged body [1]	water activity at 25° C. [1]	QH residual rate (%) [2, 4] [%]	other results
82.6	co-crystal composed of QH and nicotinamide [Comparative Example 3]	0.48	–	–	–
–	COc1c(O)c(C)c(C/C=C(\C)CC/C=C(\C)CC/C=C(\C)CC/C=C(\C)CC/C=C(\C)CC/C=C(\C)CC/C=C(\C)CC/C=C(\C)CC/C=C(\C)CCC=C(C)C)c(O)c1OC [Comparative Example 2, reduced coenzyme Q10]	–	0.13	–	QH residual rate (%) ([2]; sealed glass vial, stored at 25° C., relative humidity 60%, 4 weeks): 33.3%
–	COc1c(O)c(C)c(C/C=C(\C)CC/C=C(\C)CC/C=C(\C)CC/C=C(\C)CC/C=C(\C)CC/C=C(\C)CC/C=C(\C)CC/C=C(\C)CC/C=C(\C)CCC=C(C)C)c(O)c1OC [Example 3, reduced coenzyme Q10]	0.50	–	92.3	–
–	COc1c(O)c(C)c(C/C=C(\C)CC/C=C(\C)CC/C=C(\C)CC/C=C(\C)CC/C=C(\C)CC/C=C(\C)CC/C=C(\C)CC/C=C(\C)CC/C=C(\C)CCC=C(C)C)c(O)c1OC [Comparative Example 1, reduced coenzyme Q10]	–	0.17	–	QH residual rate (%) ([2]; sealed glass vial, stored at 40° C., relative humidity 75%, 4 weeks): 87.5%
–	COc1c(O)c(C)c(C/C=C(\C)CC/C=C(\C)CC/C=C(\C)CC/C=C(\C)CC/C=C(\C)CC/C=C(\C)CC/C=C(\C)CC/C=C(\C)CC/C=C(\C)CCC=C(C)C)c(O)c1OC [Example 4, reduced coenzyme Q10]	0.85	–	95.3	–
92.2	co-crystal composed of QH and nicotinamide [Example 10]	0.53	–	–	–

Source: US20250100959A1, “METHOD FOR STORING REDUCED COENZYME Q10” (KANEKA CORPORATION, priority 2021, published 2025)
